According to US10800791B2, “Triazole ACC inhibitors and uses thereof” (Gilead Apollo, LLC, priority 2015, dated 2020):
In brackets after ≈: the same amount, converted by molar mass. Read-outs that look alike come from different tables or passages of the source.

Assays:
C. albicans = experiment: Antifungal Activity Assay (broth microtiter MIC), C. albicans; assay type: cell-based, Candida albicans; details: Candida albicans, ATCC90028, 48 h
Method in brief: (§1)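 CLSI M27-A3 microdilution; RPMI 1640+MOPS; 2.5×10^3 CFU/mL final inoculum; cultures from Sabouraud dextrose agar, 35° C overnight; compound working solution 128 μg/mL from 1 mg/mL DMSO stock; visual MIC at 48 h vs growth control.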

C. krusei = experiment: Antifungal Activity Assay (broth microtiter MIC), C. krusei; assay type: cell-based, Candida krusei; details: Pichia kudriavzevii, ATCC6258, 48 h
Method in brief: as §1

Botrtyis cinerea (Bc) = experiment: Growth inhibition assay of fungal pathogens, Bc; assay type: cell-based; details: 48 h
Method in brief: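 Spores diluted in 17% V8 liquid media and incubated with compound at final 50, 10, 2 ppm or 2, 0.4, 0.08 ppm (2% DMSO). OD600 plus visual ratings at 24 and 48 hours, blank-subtracted; percent growth inhibition from 48 h readings relative to 2% DMSO control.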

[1] = read-out: MIC, C. albicans ATCC 90028, Table 3a, 3 replicates, MIC recorded at 48 h
[2] = read-out: MIC, C. albicans ATCC 90028, Table 3b (additional results), 3 replicates, MIC recorded at 48 h
[3] = read-out: MIC, C. krusei ATCC 6258, Table 3a, 3 replicates, MIC recorded at 48 h
[4] = read-out: MIC, C. krusei ATCC 6258, Table 3b (additional results), 3 replicates, MIC recorded at 48 h
[5] = read-out: Concentration at 90% Inhibition Bc, Botrtyis cinerea, growth inhibition at 48 hours vs 2% DMSO control
[6] = read-out: Concentration at 90% Inhibition Bc, Botrtyis cinerea, growth inhibition vs 2% DMSO control at 48 hours
[7] = Table 3a, ATCC 90028, 3 replicates, MIC recorded at 48 h, read-out: MIC, C. albicans ATCC 90028
[8] = Table 3b (additional results), ATCC 90028, 3 replicates, MIC recorded at 48 h, read-out: MIC, C. albicans ATCC 90028
[9] = Table 3a, ATCC 6258, 3 replicates, MIC recorded at 48 h, read-out: MIC, C. krusei ATCC 6258
[10] = Table 3b (additional results), ATCC 6258, 3 replicates, MIC recorded at 48 h, read-out: MIC, C. krusei ATCC 6258
[11] = Botrtyis cinerea, growth inhibition at 48 hours vs 2% DMSO control, read-out: Concentration at 90% Inhibition Bc
[12] = Botrtyis cinerea, growth inhibition vs 2% DMSO control at 48 hours, read-out: Concentration at 90% Inhibition Bc

| SMILES | MIC (C. albicans; [1]) [µg/mL] | MIC (C. albicans; [2]) [µg/mL] | MIC (C. krusei; [3]) [µg/mL] | MIC (C. krusei; [4]) [µg/mL] | IC90 (Botrtyis cinerea (Bc); [5]) [µg/mL] | IC90 (Botrtyis cinerea (Bc); [6]) [µg/mL] | MIC (C. albicans; [7]) [µg/mL] | MIC (C. albicans; [8]) [µg/mL] | MIC (C. krusei; [9]) [µg/mL] | MIC (C. krusei; [10]) [µg/mL] | IC90 (Botrtyis cinerea (Bc); [11]) [µg/mL] | IC90 (Botrtyis cinerea (Bc); [12]) [µg/mL] |
| --- | --- | --- | --- | --- | --- | --- | --- | --- | --- | --- | --- | --- |
| COc1ccc(F)cc1[C@H](Cn1c(=O)n(C(C)(C)C(=O)N2CCCCC2)c(=O)c2c(C)c(-n3nccn3)sc21)OC1CCC(=O)CC1 [Compound I-34, (R)-1-(2-(5-fluoro-2-methoxyphenyl)-2-((4-oxocyclohexyl)oxy)ethyl)-5-methyl-3-(2-methyl-1-oxo-1-(piperidin-1-yl)propan-2-yl)-6-(2H-1,2,3-triazol-2-yl)thieno[2,3-d]pyrimidine-2,4(1H,3H)-dione] | 0.25 to 1 (≈ 0.375 to 1.5 µM) | 0.25 to 1 (≈ 0.375 to 1.5 µM) | 0.25 to 1 (≈ 0.375 to 1.5 µM) | 1.01 to 2 (≈ 1.51 to 3 µM) | 0.4 (≈ 0.6 µM) | 0.4 (≈ 0.6 µM) | – | – | – | – | – | – |
| COc1ccc(F)cc1[C@H](Cn1c(=O)n(CC(=O)NC(C)C)c(=O)c2c(C)c(-n3nccn3)sc21)OC(C)C [Compound I-35, (R)-2-(1-(2-(5-fluoro-2-methoxyphenyl)-2-isopropoxy-ethyl)-5-methyl-2,4-dioxo-6-(2H-1,2,3-triazol-2-yl)-1,4-dihydrothieno[2,3-d]pyrimidin-3(2H)-yl)-N-isopropylacetamide] | 2.1 to 4 (≈ 3.76 to 7.16 µM) | 2.01 to 4 (≈ 3.6 to 7.16 µM) | 2.1 to 4 (≈ 3.76 to 7.16 µM) | > 4.01 | 0.4 (≈ 0.716 µM) | 0.4 (≈ 0.716 µM) | – | – | – | – | – | – |
| CCO[C@@H](Cn1c(=O)n(C(C)(C)C(=O)N2CCCC2)c(=O)c2c(C)c(-n3nccn3)sc21)c1cc(F)ccc1OC [Compound I-42, (R)-1-(2-ethoxy-2-(5-fluoro-2-methoxyphenyl)ethyl)-5-methyl-3-(2-methyl-1-oxo-1-(pyrrolidin-1-yl)propan-2-yl)-6-(2H-1,2,3-triazol-2-yl)thieno[2,3-d]pyrimidine-2,4(1H,3H)-dione] | – | – | – | – | – | – | 1.1 to 2 (≈ 1.88 to 3.42 µM) | 2.01 to 4 (≈ 3.44 to 6.84 µM) | 0.25 to 1 (≈ 0.428 to 1.71 µM) | 1.01 to 2 (≈ 1.73 to 3.42 µM) | 0.4 (≈ 0.684 µM) | 0.4 (≈ 0.684 µM) |
| COc1ccc(F)cc1[C@H](Cn1c(=O)n(C(C)(C)C(=O)NC(C)C)c(=O)c2c(C)c(-n3nccn3)sc21)OCCO [Compound I-43, (R)-2-(1-(2-(5-fluoro-2-methoxyphenyl)-2-(2-hydroxyethoxy)ethyl)-5-methyl-2,4-dioxo-6-(2H-1,2,3-triazol-2-yl)-1,4-dihydrothieno[2,3-d]pyrimidin-3(2H)-yl)-N-isopropyl-2-methylpropanamide] | 0.25 to 1 (≈ 0.425 to 1.7 µM) | 0.25 to 1 (≈ 0.425 to 1.7 µM) | 0.25 to 1 (≈ 0.425 to 1.7 µM) | 0.25 to 1 (≈ 0.425 to 1.7 µM) | 2 (≈ 3.4 µM) | 2 (≈ 3.4 µM) | – | – | – | – | – | – |
| COc1ccc(F)cc1[C@H](Cn1c(=O)n(C(C)(C)C(=O)N2CCCC2)c(=O)c2c(C)c(-n3nccn3)sc21)OCCO [Compound I-44, (R)-1-(2-(5-fluoro-2-methoxyphenyl)-2-(2-hydroxyethoxy)ethyl)-5-methyl-3-(2-methyl-1-oxo-1-(pyrrolidin-1-yl)propan-2-yl)-6-(2H-1,2,3-triazol-2-yl)thieno[2,3-d]pyrimidine-2,4(1H,3H)-dione] | – | – | – | – | – | – | 2.1 to 4 (≈ 3.5 to 6.66 µM) | 1.01 to 2 (≈ 1.68 to 3.33 µM) | 1.1 to 2 (≈ 1.83 to 3.33 µM) | 1.01 to 2 (≈ 1.68 to 3.33 µM) | 2 (≈ 3.33 µM) | 2 (≈ 3.33 µM) |
| COc1ccc(F)cc1[C@H](Cn1c(=O)n(C(C)(C)C(=O)NC(C)C)c(=O)c2c(C)c(-n3nccn3)sc21)OC[C@@H](C)O [Compound I-45, 2-(1-((R)-2-(5-fluoro-2-methoxyphenyl)-2-((R)-2-hydroxypropoxy)ethyl)-5-methyl-2,4-dioxo-6-(2H-1,2,3-triazol-2-yl)-1,4-dihydro-thieno[2,3-d]pyrimidin-3(2H)-yl)-N-isopropyl-2-methylpropanamide] | 0.25 to 1 (≈ 0.415 to 1.66 µM) | 0.25 to 1 (≈ 0.415 to 1.66 µM) | 0.25 to 1 (≈ 0.415 to 1.66 µM) | 1.01 to 2 (≈ 1.68 to 3.32 µM) | 2 (≈ 3.32 µM) | 2 (≈ 3.32 µM) | – | – | – | – | – | – |
| COc1ccc(F)cc1[C@H](Cn1c(=O)n(C(C)(C)C(=O)N2CCCC2)c(=O)c2c(C)c(-n3nccn3)sc21)OC[C@@H](C)O [Compound I-46, 1-((R)-2-(5-fluoro-2-methoxyphenyl)-2-((R)-2-hydroxypropoxy)ethyl)-5-methyl-3-(2-methyl-1-oxo-1-(pyrrolidin-1-yl)propan-2-yl)-6-(2H-1,2,3-triazol-2-yl)thieno[2,3-d]pyrimidine-2,4(1H,3H)-dione] | – | – | – | – | – | – | 0.25 to 1 (≈ 0.407 to 1.63 µM) | 0.25 to 1 (≈ 0.407 to 1.63 µM) | 0.25 to 1 (≈ 0.407 to 1.63 µM) | 2.01 to 4 (≈ 3.27 to 6.51 µM) | 2 (≈ 3.25 µM) | 2 (≈ 3.25 µM) |
